“Also recorded” adds a separate entry of the source.
Key:
[1] = test system: vascular smooth muscle cells; test: MTT cell death (viability) assay; format: cell-based, mouse; design: dose or concentration left out as unconfirmed; conditions: 48 hrs
Description: Mouse vascular smooth muscle cells, isolated as described (13), were maintained in 231 media (Cascade Biologics, Portland, Oreg.) supplemented with SMGS (Cascade Biologics) in a humidified incubator at 37° C. with 5% CO2. Cells from passages 4-9 were used in all experiments. All experiments were performed in subconfluent, unsynchronized cells growing in SMGS except for the lamellipodium formation assay. Vascular smooth muscle cells were plated at 1×10^4 cells per well in 96-well culture plates and incubated overnight. The cells were treated with various concentrations of morelloflavone for 48 hrs. Then, the cells were exposed to MTT labeling reagent at 10 mg/mL for 4 hrs and solubilized in 0.01 N HCl containing 10% SDS overnight. Formed formazan was measured via spectrophotometry at 600 nm.

[2] = test system: vascular smooth muscle cells; test: Lamellipodium formation assay; format: cell-based, mouse; design: effect on morphology of vascular smooth muscle cells: dose or concentration left out as unconfirmed; conditions: for lamellipodium index: 5% serum, 3 hrs
Description: Mouse vascular smooth muscle cells, isolated as described (13), were maintained in 231 media (Cascade Biologics, Portland, Oreg.) supplemented with SMGS (Cascade Biologics) in a humidified incubator at 37° C. with 5% CO2. Cells from passages 4-9 were used in all experiments. All experiments were performed in subconfluent, unsynchronized cells growing in SMGS except for the lamellipodium formation assay.
The lamellipodium formation assay was performed as described (14). In brief, mouse vascular smooth muscle cells (serum-starved for 24 hrs) were seeded onto fibronectin-coated wells of chamber slides (CultureSlide, BD BioCoat Fibronectin) and incubated with various concentrations of morelloflavone (0, 1, and 10 mM) in the presence or absence of serum for 3 hrs at 37° C. Then, cells were fixed with 4% paraformaldehyde, permeabilized with 0.1% Triton X-100, stained with Alexa Fluor 594-Phallidin (Invitrogen-Molecular Probes) and DRAQ5 (Biostatus, Ltd, Leicestershire, UK), and viewed with the use of a Leica DM6000 confocal microscope. Lamellipodium indices were calculated as the number of lamellipodia divided by the total number of cells counted.

[3] = test system: c-Src; test: Western blot, phosphorylation of c-Src; format: cell-based, mouse; conditions: low concentrations (0.1 & 1 mM), 5 min
Description: For the evaluation of phosphorylated FAK and c-Src, Western blot analyses were performed as described (15). Briefly, vascular smooth muscle cells were seeded on 10-cm dishes, treated with various concentrations of morelloflavone for 5 min, and harvested into RIPA buffer with protease inhibitor cocktails. Cleared cell lysates ([…] of protein) were incubated with anti-FAK or anti-c-Src antibodies at 4° C. for 1 hr in a final volume of 1 mL RIPA buffer, and incubated for another 1 hr with protein A/G agarose beads (Santa Cruz; SCBT sc-2003). Immunoprecipitated proteins were eluted into SDS-loading 7 buffer and subjected to 12% SDS-PAGE and immunoblotting using anti-FAK (Santa Cruz; A-17; sc-557) and anti-c-Src (Santa Cruz; SRC-2; sc-18) antibodies for total FAK and c-Src, respectively, and anti-phosphotyrosine antibody (Santa Cruz; PY-20; sc-508) for phosphorylated FAK and c-Src. Densitometric analyses were performed using Adobe Photoshop (Adobe Systems Incorporated, San Jose, Calif.).

[4] = test system: Ldlr−/−Apobec1−/− mice; test: Immunohistochemical and TUNEL analysis of atherosclerotic lesions; format: in vivo, mouse; conditions: aortic root, 8 months diet
Source text: For the cross sectional analyses of atherosclerosis, the roots of the ascending aortae were embedded in OCT compound (Tissue-Tek®, Sakura-Fineteck U.S.A., Torrance, Calif.). The 5-μm cryostat sections were obtained at the levels of aortic valve leaflets and subjected to hematoxylin and eosin (H&E), TUNEL, and other immunohistochemical staining as described below. In both methods of atherosclerosis quantification, the images of aortae were digitally captured and stored in the TIFF format, using the ScanScope slide scanning system (Nikon, Melville, N.Y.). The quantification of the atherosclerotic area was performed by Image J software (NIH, Bethesda, Md.) and expressed at lesion areas (μm^2).
In order to identify within the intima vascular smooth muscle cells, macrophages, and proliferating cells, the tissue was stained using anti-smooth muscle cell alpha-actin (SMA) (catalog no. ab5694, Abcam, Cambridge, Mass.), anti-macrophage surface glycoproteins (F4/80, catalog no. ab6640, Abcam), and anti-Ki67 (Clone TEC-3, DAKO, Carpinteria, Calif.) antibodies, respectively, as described previously. Values are expressed as means±SD. Comparisons of parameters between two groups were made with the two-tailed Student's t test. When appropriate, ANOVA was performed to compare multiple groups. A value of P<0.05 was considered statistically significant.

## O=C1c2c(O)cc(O)cc2O[C@H](c2ccc(O)cc2)[C@H]1c1c(O)cc(O)c2c(=O)cc(-c3ccc(O)c(O)c3)oc12 [morelloflavone, 5,7, 4′, 5″, 7″, 3″, 4″-heptahydroxy-[3,8″]-flavonylflavanone]
[1]
  cytotoxicity / cell survival (MTT): no cytotoxicity; also recorded: does not affect; also recorded: not cytotoxic; also recorded: does not induce cytotoxicity
[2]; 1 mM morelloflavone
  lamellipodium index: 0.05±0.001
[2]; 10 mM morelloflavone
  lamellipodium index: 0.033±0.006
[2]; absence of serum, any concentration (0, 1)
  effect on morphology of vascular smooth muscle cells: did not change the morphology
[2]; serum stimulated, 1-10 mM
  effect on lamellipodium indices / formation: significantly decreased lamellipodium indices in a dose-dependent fashion; also recorded: failed to increase lamellipodium indices; also recorded: blocks
[3]
  phosphorylation of c-Src: inhibited; also recorded: robustly decreased phosphorylation; also recorded: blocks
[4]
  Ki-67-positive cells in atherosclerotic lesions: 0.0011±0.0003 cells/μm^2
  Ki-67 index in atherosclerotic lesions: 1.6±0.5%
  SMA-positive cells (SMA index) in atherosclerotic lesions: 0.0026±0.0007 cells/μm^2
  SMA-positive cells (VSMCs) in atherosclerotic lesions: 15.4±3.5 cells/section
  TUNEL index in atherosclerotic lesions: 0.4±0.2%
  TUNEL-positive cells in atherosclerotic lesions: 0.00025±0.00008 cells/μm^2
  macrophages (F4/80-positive cells) in the lesions: 32.3±8.0 cells/section
  macrophages (F4/80 index) in the lesions: 0.0042±0.0018 cells/μm^2
  reduction of SMA-positive cells per section vs control: 43%
  reduction of SMA-positive cells per μm^2 vs control: 32%

Reference: patent US20110217293A1, “Uses of morelloflavone” (priority 2008, published 2011)
